Reference: patent US12630829B2, “Gene encoding cytochrome P450 and use thereof” (KUMIAI CHEMICAL INDUSTRY CO., LTD., priority 2020, dated 2026)

How the values were obtained:
[1] = system: KJ541960 (wheat-derived P450) co-expressed with TaCPR; assay: In vitro drug metabolism test of KJ541960 protein against fenquinotrione; format: in vitro ADME; conditions: test method and conditions of Example 1; KJ541960 reaction plot
Experimental: (§1) It was verified by in vitro metabolism test whether or not a novel wheat-derived P450 of AK454412 is involved in herbicide metabolism. As a compound having high safety against wheat, fenquinotrione was used. […] A solution after completing the enzymatic reaction was centrifuged at 15,000 rpm for 1 minute, and the obtained supernatant was filtered through a 0.45 μm filter and then tested by LC/MS. LC/MS conditions were as follows:
Therefore, synthesis of an artificial gene of the KJ541960 gene was requested of Eurofins Genomics K.K. Here, NdeI and EcoRI sites were respectively added to the 5′ and 3′ terminals of the CDS sequence of the gene. A DNA fragment of the KJ541960 gene was cleaved through NdeI/EcoRI treatment from the synthesized pEX-A2J2-KJ541960 plasmid, and was linked to pET-22b(+) vector, similarly having been subjected to NdeI/EcoRI treatment, with Ligation-Convenience Kit, and thus pET-22b-KJ541960 was produced (FIG. 13). […]
It is noted that the KJ541960 gene, synthesized as the artificial gene, was set to encode an amino acid sequence, in which a membrane anchoring region of the 35 N-terminal amino acid residues was removed, and the 6β sequence (MAKKTSS) was added as the same conditions as in the AK454412 gene. […] Besides, the intensity of the peak of the detected demethylated product was substantially the same in both the reaction plots. […]

[2] = system: AK369081 (barley-derived P450) co-expressed with TaCPR; assay: In vitro drug metabolism test of AK369081 protein against fenquinotrione; format: in vitro ADME; conditions: test method and conditions of Example 1; AK369081 reaction plot
Experimental: as §1
Specifically, in the same manner as in KJ541960, recombinant proteins of these genes were prepared to evaluate, by in vitro test, whether or not these have fenquinotrione metabolic activity. First, an expression vector was designed by inserting, between NdeI and EcoRI sites of pET-22b(+), a nucleotide sequence, which encoded a sequence obtained by removing the transmembrane region (AK375492: 35 N-terminal amino acid residues, AK369081: 37 N-terminal amino acid residues) of each of the genes of Accession Nos. AK375492 and AK369081, and adding the 6β sequence (MAKKTSS) to the N-terminal, and synthesis of artificial genes was requested of GenScript. Each of the synthesized expression vectors (6β AK375492 in pET-22b, 6β AK369081 in pET-22b) was co-introduced, together with pACYC-del31_TaCPR, into E. coli BL21 star (DE3) strain for protein expression (FIG. 15). […]

[3] = system: wild type Arabidopsis thaliana; assay: Fenquinotrione sensitivity test on MS solid medium, wild type; format: in vivo; conditions: 10 nM in MS solid medium, 22° C., about 10 days, evaluated subjectively
Experimental: With a sensitivity difference from wild type Arabidopsis thaliana used as an index, it was verified whether or not the created transformant had resistance to fenquinotrione. In MS solid media in each of which fenquinotrione was added to a final concentration of 10,000, 1,000, 100, 10, or 1 nM, or 0.1% of DMSO was added as an untreated plot, sterilized seeds of Arabidopsis thaliana having AK454412 forced expression and wild type Arabidopsis thaliana were each seeded, and grown at 22° C. for about 10 days. The sensitivity to this drug was evaluated subjectively in accordance with the degree of chlorosis of acting symptom. The results are illustrated in FIG. 9. FIG. 9(A) illustrates results obtained in using the wild type Arabidopsis thaliana, and FIG. 9(B) illustrates results obtained in using the Arabidopsis thaliana having AK454412 forced expression.

## COc1ccc(-n2c(=O)c(C(=O)C3C(=O)CCCC3=O)nc3c(Cl)cccc32)cc1 [fenquinotrione]
[1]
  metabolism of fenquinotrione (production of demethylated product as index): a parent peak of fenquinotrione was reduced, and a peak of the demethylated product appeared
[2]
  metabolism of fenquinotrione (generation of demethylated product as index): a peak of the demethylated product (RT=in the vicinity of 15.1) appeared
[3]
  wild type Arabidopsis thaliana having chlorosis: ≥ 90%
